Laboratory results taken from ChEMBL document CHEMBL5257051, “Integrasone Derivatives Isolated from Lepteutypa sp. KT4162 and Their Anti-HIV-1 Integrase Activity” (J Nat Prod, 2023).

How the values were obtained:
[1] = Inhibition of HIV-1 Integrase transfected in human HEK293T cells measured after 48 hrs by bright-glo luciferase assay; assay type: cell-based; details: Human immunodeficiency virus 1, HEK-293T
[2] = Cytotoxicity against human HEK293T cells assessed as cell growth inhibition measured for 30 mins by WST assay; assay type: toxicity, cell-based, HEK-293T
[3] = Inhibition of HIV-1 Integrase transfected in human HEK293T cells measured after 48 hrs by luminometer analysis; assay type: cell-based, Human immunodeficiency virus 1
[4] = Cytotoxicity against human HEK293T cells assessed as cell growth inhibition by MTT assay; assay type: toxicity, cell-based, HEK-293T

Structure (SMILES) | IC50 [1] [µM] | IC50 [3] [µM] | CC50 at 0.5 h [2] [µM] | CC50 [4] [µM]
CCCCCCCCC(=O)C[C@H]1OCC2=C1[C@@H](O)[C@@H]1O[C@@H]1[C@@H]2O | 95 | – | > 250 | –
O=C(CCCCCCCCO)C[C@H]1OCC2=C1[C@@H](O)[C@@H]1O[C@@H]1[C@@H]2O | 112 | – | > 250 | –
COc1cc2c(cc1Cc1cccc(Cl)c1F)c(=O)c(C(=O)O)cn2[C@H](CO)C(C)C [ELVITEGRAVIR] | – | 3.8 | – | > 250

Further molecules by falling IC50 [1], results first:

IC50 [1] [µM] | IC50 [3] [µM] | Structure (SMILES) | CC50 at 0.5 h [2] [µM] | CC50 [4] [µM]
56 | – | CCCCCCCCC(=O)C[C@H]1OC(=O)C2=C1[C@@H](O)[C@@H]1O[C@@H]1[C@@H]2O | > 250 | –
40 | – | CCCCCCCCC(=O)Cc1occ2c1[C@@H](O)[C@@H]1O[C@@H]1[C@@H]2O | > 250 | –
2.5 | – | CCCCCCCCC(=O)C[C@@H]1OC(=O)C2=C1[C@@H](O)[C@@H]1O[C@@H]1[C@@H]2O | > 250 | –
